# Reference: ChEMBL document CHEMBL4811258, “Potent Antimalarials with Development Potential Identified by Structure-Guided Computational Optimization of a Pyrrole-Based Dihydroorotate Dehydrogenase Inhibitor Series” (J Med Chem, 2021)
# How the values were obtained:
# [1] = Inhibition of Plasmodium falciparum DHODH expressed in Escherichia coli BL21-DE3 using L-dihydroorotate as substrate by steady-state DCIP method
# [2] = test system: Plasmodium falciparum
# [3] = biological target: Cytochrome P450 3A4 (Homo sapiens, UniProt P08684)
# Cytochrome P450 3A4, sequence (P08684 whole entry): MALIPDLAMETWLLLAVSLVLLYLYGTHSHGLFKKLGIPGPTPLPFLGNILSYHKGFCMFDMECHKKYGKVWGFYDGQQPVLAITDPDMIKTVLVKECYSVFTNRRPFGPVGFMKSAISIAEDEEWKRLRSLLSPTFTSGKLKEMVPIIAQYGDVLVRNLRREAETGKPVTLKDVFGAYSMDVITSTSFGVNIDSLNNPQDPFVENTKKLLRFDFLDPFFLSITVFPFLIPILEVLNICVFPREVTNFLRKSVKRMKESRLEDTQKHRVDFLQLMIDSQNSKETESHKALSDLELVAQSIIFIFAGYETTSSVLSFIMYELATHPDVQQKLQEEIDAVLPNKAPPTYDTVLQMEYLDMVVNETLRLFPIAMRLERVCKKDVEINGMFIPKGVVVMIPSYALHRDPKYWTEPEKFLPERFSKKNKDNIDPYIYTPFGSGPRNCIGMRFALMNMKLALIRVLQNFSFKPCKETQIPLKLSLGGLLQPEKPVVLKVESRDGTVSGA
# [4] = in vitro; details: rat, blood and plasma
# [5] = Plasma clearance in Sprague-Dawley rat at […], iv measured up to 24 hrs; assay type: ADME, organism-based
# [6] = Intrinsic clearance in mouse liver microsomes at 1 uM measured up to 4 hrs by LC-MS analysis; assay type: ADME, Microsome
# [7] = Unbound intrinsic clearance in mouse liver microsomes at 1 uM measured up to 4 hrs by LC-MS analysis; assay type: ADME, Microsome
# [8] = Apparent half life in Sprague-Dawley rat at 31 mg/kg, po measured up to 24 hrs; assay type: ADME, organism-based; details: in vivo, read-out: t1/2(app) (converted)
# [9] = test system: L1210; assay: Cytotoxicity against mouse L1210 cells; assay type: cell-based
# [10] = Binding affinity to microsome (unknown origin); assay type: ADME; details: microsomes
# [11] = Inhibition of dog DHODH up to 100 uM; design: species or system Canis lupus familiaris; details: up to 100 µM
# [12] = Tmax in Sprague-Dawley rat at 31 mg/kg, po measured up to 24 hrs; assay type: ADME, organism-based; details: in vivo
# [13] = buffer, pH 1.6, 1 h
# [14] = simulated gi fluid, pH 5.8, 5 h
# [15] = biological target: Dihydroorotate dehydrogenase (quinone), mitochondrial (Mus musculus, UniProt O35435); assay: Inhibition of mouse DHODH up to 100 uM; details: up to 100 µM
# Dihydroorotate dehydrogenase (quinone), mitochondrial (Mus musculus, UniProt O35435), sequence (O35435 whole entry): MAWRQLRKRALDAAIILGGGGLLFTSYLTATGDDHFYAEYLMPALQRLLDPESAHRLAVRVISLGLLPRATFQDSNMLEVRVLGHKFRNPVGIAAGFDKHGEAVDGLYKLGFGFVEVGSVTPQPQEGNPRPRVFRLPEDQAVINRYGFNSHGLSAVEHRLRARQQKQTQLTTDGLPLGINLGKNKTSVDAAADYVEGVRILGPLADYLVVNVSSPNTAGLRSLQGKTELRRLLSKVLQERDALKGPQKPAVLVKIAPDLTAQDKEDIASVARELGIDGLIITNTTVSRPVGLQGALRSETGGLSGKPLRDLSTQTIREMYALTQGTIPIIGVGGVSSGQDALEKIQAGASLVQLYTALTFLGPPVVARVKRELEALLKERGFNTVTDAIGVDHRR
# [16] = test system: Plasmodium falciparum; assay: Antiplasmodial activity against asexual blood stage chloroquine and pyrimethamine-resistant Plasmodium falciparum Dd2 infected in human erythrocytes assessed as parasite killing; assay type: functional, organism-based
# [17] = in vitro; details: mouse, blood and plasma
# [18] = buffer, pH 7.4, 5 h
# [19] = Cmax in Swiss mouse at 20 mg/kg, po measured up to 24 hrs by LC-MS analysis; assay type: ADME, organism-based; design: route oral, dose 20 mg/kg, time <=24; details: in vivo
# [20] = AUC (0 to infinity) in Sprague-Dawley rat at 31 mg/kg, po measured up to 24 hrs; assay type: ADME, organism-based; design: route oral, dose 31 mg/kg, time <=24; details: in vivo
# [21] = Cmax in Sprague-Dawley rat at 31 mg/kg, po measured up to 24 hrs; assay type: ADME, organism-based; design: route oral, dose 31 mg/kg, time <=24; details: in vivo
# [22] = simulated gi fluid, pH 6.5, 5 h
# [23] = biological target: Dihydroorotate dehydrogenase (quinone), mitochondrial (Rattus norvegicus, UniProt Q63707); assay: Inhibition of rat DHODH up to 100 uM; details: up to 100 µM
# Dihydroorotate dehydrogenase (quinone), mitochondrial (Rattus norvegicus, UniProt Q63707), sequence (Q63707 whole entry): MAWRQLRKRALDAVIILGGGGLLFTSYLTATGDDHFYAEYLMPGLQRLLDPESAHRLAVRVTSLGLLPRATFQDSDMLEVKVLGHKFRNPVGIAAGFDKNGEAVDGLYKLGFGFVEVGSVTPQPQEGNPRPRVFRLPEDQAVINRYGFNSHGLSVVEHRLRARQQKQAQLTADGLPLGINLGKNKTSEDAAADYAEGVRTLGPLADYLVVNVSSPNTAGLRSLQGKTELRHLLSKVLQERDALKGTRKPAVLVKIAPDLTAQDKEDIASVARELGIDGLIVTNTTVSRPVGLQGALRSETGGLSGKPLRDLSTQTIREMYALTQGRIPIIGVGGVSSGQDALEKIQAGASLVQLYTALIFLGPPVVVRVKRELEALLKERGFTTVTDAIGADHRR
# [24] = biological target: T1, Cytochrome P450 2B6 (Homo sapiens, UniProt P20813)
# T1 sequence (P20813 whole entry): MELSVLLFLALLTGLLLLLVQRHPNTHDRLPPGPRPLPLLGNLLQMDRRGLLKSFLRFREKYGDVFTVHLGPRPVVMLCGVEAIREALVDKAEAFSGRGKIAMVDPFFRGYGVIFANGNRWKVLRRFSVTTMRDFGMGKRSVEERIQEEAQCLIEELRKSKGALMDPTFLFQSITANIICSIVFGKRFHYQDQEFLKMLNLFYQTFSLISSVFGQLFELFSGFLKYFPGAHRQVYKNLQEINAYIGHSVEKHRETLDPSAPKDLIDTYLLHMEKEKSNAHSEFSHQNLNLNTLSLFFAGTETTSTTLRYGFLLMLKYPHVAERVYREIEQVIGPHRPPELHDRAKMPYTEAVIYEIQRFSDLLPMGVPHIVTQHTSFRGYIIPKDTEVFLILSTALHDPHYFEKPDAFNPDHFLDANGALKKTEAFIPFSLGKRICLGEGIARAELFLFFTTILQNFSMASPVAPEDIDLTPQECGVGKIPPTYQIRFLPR
# [25] = Oral bioavailability in Sprague-Dawley rat at 31 mg/kg measured up to 24 hrs; assay type: ADME, organism-based; details: in vivo
# [26] = test system: HepG2; assay: Cytotoxicity against human HepG2 cells; assay type: cell-based
# [27] = human, plasma
# [28] = Tmax in Swiss mouse at 20 mg/kg, po measured up to 24 hrs by LC-MS analysis; assay type: ADME, organism-based; details: in vivo
# [29] = Half life in Swiss mouse at 20 mg/kg, po measured up to 24 hrs by LC-MS analysis; assay type: ADME, organism-based; details: in vivo
# [30] = biological target: T2, Cytochrome P450 2C8 (Homo sapiens, UniProt P10632)
# T2 sequence (P10632 whole entry): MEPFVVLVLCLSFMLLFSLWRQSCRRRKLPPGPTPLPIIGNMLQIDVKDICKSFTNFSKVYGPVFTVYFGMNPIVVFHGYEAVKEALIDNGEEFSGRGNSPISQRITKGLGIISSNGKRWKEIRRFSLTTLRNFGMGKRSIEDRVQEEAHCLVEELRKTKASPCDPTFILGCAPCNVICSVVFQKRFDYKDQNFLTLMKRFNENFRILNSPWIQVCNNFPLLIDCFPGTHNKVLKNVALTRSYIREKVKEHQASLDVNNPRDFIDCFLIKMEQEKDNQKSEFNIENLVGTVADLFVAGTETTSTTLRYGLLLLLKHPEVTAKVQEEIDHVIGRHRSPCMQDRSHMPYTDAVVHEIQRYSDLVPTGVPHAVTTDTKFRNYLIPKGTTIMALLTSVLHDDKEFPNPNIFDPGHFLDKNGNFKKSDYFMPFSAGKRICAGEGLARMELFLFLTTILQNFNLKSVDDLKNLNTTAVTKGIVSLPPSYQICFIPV
# [31] = biological target: Albumin (Bos taurus, UniProt P02769); assay: Binding affinity to bovine serum albumin by Albumax assay; assay type: ADME; details: cattle, isolated protein
# Albumin, sequence (P02769 whole entry): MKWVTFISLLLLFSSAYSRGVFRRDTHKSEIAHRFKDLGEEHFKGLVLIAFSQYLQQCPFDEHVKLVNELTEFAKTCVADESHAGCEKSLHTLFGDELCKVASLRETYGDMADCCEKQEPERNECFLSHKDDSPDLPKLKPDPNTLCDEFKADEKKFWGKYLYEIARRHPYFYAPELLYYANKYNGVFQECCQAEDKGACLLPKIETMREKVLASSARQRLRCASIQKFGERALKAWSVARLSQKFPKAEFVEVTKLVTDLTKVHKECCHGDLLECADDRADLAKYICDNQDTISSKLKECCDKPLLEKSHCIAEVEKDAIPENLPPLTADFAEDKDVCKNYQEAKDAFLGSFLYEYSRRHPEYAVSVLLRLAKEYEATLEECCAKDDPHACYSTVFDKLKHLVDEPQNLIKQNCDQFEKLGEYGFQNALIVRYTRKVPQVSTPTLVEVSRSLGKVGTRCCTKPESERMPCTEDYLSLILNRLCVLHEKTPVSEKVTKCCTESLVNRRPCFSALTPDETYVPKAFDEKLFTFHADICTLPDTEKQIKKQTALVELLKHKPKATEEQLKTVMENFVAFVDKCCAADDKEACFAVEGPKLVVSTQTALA
# [32] = AUC (0 to infinity) in Swiss mouse at 20 mg/kg, po measured up to 24 hrs by LC-MS analysis; assay type: ADME, organism-based; design: route oral, dose 20 mg/kg, time <=24; details: in vivo
# [33] = Volume of distribution at steady state in Sprague-Dawley rat at […], iv measured up to 24 hrs; assay type: ADME, organism-based; details: in vivo, read-out: Vdss
# [34] = mouse, plasma
# [35] = Inhibition of Plasmodium vivax DHODH expressed in Escherichia coli BL21-DE3 using L-dihydroorotate as substrate by steady-state DCIP method
# [36] = rat, plasma
# [37] = test system: Plasmodium falciparum; assay: Antiplasmodial activity against Plasmodium falciparum 3D7 Uganda infected in human erythrocytes assessed as parasite killing using albumax media measured after 72 hrs by SYBR Green assay; assay type: functional, organism-based; details: 3D7, 72 h
# [38] = Tmax in Sprague-Dawley rat at 32 mg/kg, po measured up to 24 hrs; assay type: ADME, organism-based; details: in vivo
# [39] = test system: Plasmodium falciparum; assay: Antiplasmodial activity against Plasmodium falciparum Dd2 Uganda infected in human erythrocytes assessed as parasite killing using albumax media measured after 72 hrs by SYBR Green assay; assay type: functional, organism-based; details: Dd2, 72 h
# [40] = test system: Plasmodium falciparum; assay: Antiplasmodial activity against asexual blood stage Plasmodium falciparum D10 expressing yeast DHODH infected in human erythrocytes assessed as parasite killing; assay type: functional, organism-based
# [41] = test system: Plasmodium falciparum; assay: Antiplasmodial activity against Plasmodium falciparum Uganda field isolated from patients infected in human erythrocytes assessed as parasite killing using albumax media measured after 72 hrs by SYBR Green assay; assay type: functional, organism-based
# [42] = Cmax in Sprague-Dawley rat at 32 mg/kg, po measured up to 24 hrs; assay type: ADME, organism-based; design: route oral, dose 32 mg/kg, time <=24; details: in vivo
# [43] = test system: Plasmodium falciparum; assay: Antiplasmodial activity against asexual blood stage Plasmodium falciparum D10 expressing yeast DHODH infected in human erythrocytes assessed as parasite killing in presence of proguanil; assay type: functional, organism-based
# [44] = Oral bioavailability in Sprague-Dawley rat at 32 mg/kg measured up to 24 hrs; assay type: ADME, organism-based; details: in vivo
# [45] = Apparent half life in Sprague-Dawley rat at 32 mg/kg, po measured up to 24 hrs; assay type: ADME, organism-based; details: in vivo, read-out: t1/2(app) (converted)
# [46] = AUC (0 to infinity) in Sprague-Dawley rat at 32 mg/kg, po measured up to 24 hrs; assay type: ADME, organism-based; design: route oral, dose 32 mg/kg, time <=24; details: in vivo
# [47] = Plasma clearance in Swiss mouse at […], iv measured up to 24 hrs by LC-MS analysis; assay type: ADME, organism-based; details: dose 2.8 mg/kg
# [48] = Cmax in Sprague-Dawley rat at 28 mg/kg, po measured up to 24 hrs; assay type: ADME, organism-based; design: route oral, dose 28 mg/kg, time <=24; details: in vivo
# [49] = Tmax in Sprague-Dawley rat at 28 mg/kg, po measured up to 24 hrs; assay type: ADME, organism-based; details: in vivo
# [50] = human, caco-2, pH 7.4
# [51] = Oral bioavailability in Swiss mouse at 20 mg/kg measured up to 24 hrs by LC-MS analysis; assay type: ADME, organism-based; details: in vivo
# [52] = Oral bioavailability in Sprague-Dawley rat at 28 mg/kg measured up to 24 hrs; assay type: ADME, organism-based; details: in vivo
# [53] = human, caco-2, pH 7.4; remark: listed apart in the source
# [54] = Volume of distribution at steady state in Swiss mouse at […], iv measured up to 24 hrs by LC-MS analysis; assay type: ADME, organism-based; details: in vivo, dose 2.8 mg/kg, read-out: Vdss
# [55] = AUC (0 to infinity) in Sprague-Dawley rat at 28 mg/kg, po measured up to 24 hrs; assay type: ADME, organism-based; design: route oral, dose 28 mg/kg, time <=24; details: in vivo
# [56] = Apparent half life in Sprague-Dawley rat at 28 mg/kg, po measured up to 24 hrs; assay type: ADME, organism-based; details: in vivo, read-out: t1/2(app) (converted)
# [57] = test system: Plasmodium berghei; assay: Antiplasmodial activity against liver stage Plasmodium berghei berghei-ANKA-GFP-Luc-SMCON (Pb-Luc) assessed as parasite killing infected in HepG2-A16-CD8IEGF cells; assay type: functional, organism-based
SMILES,IC50 [1] [nM],EC50 [2] [nM],TDI [3],Intrinsic clearance [6] [µL/min/mg],CL free [7] [µL/min/mg],Activity [9],Activity [10] [%],inhibition (INH) [11],inhibition (INH) [15],Cmax [19] [µM],inhibition (INH) [23],Activity [26],PPB [27] [%],Tmax [28] [h],half-life [29] [min],Activity [31] [%],AUC(0-inf) [32] [µM·h],PPB [34] [%],IC50 [35] [nM],PPB [36] [%],other results
Cc1c(Cc2ccc(C(F)(F)F)nc2)c[nH]c1C(=O)NC(C)c1cn[nH]c1 (stereo in doubt; form 1),47,4.5,Active,31,52,Non-Toxic,40.5,Not Active,Not Active,6.4,Not Active,Non-Toxic,84,1,264,49.5,65,92.1,43,91.4,blood plasma ratio [4]: 1.3; clearance at 24 h ([5]; dose 2.9 mg/kg): 6.2 mL/min/kg; half-life [8]: 204 min; Tmax [12]: 3 h; solubility [13]: 81 µg/mL; solubility [14]: 81 µg/mL; EC50 [16]: 2.4 nM; blood plasma ratio [17]: 1.4; solubility [18]: 23 µg/mL; AUC(0-inf) [20]: 22 µM·h; Cmax [21]: 2400 nM; solubility [22]: 34 µg/mL; IC50 [24]: > 20 µM; bioavailability [25]: 10%; IC50 [30]: 18.3 µM; Vd at 24 h ([33]; dose 2.9 mg/kg): 1.7 L/kg
Cc1c(Cc2ccc(C(F)(F)F)nc2)c[nH]c1C(=O)NC(C)c1cnn(C)c1 (stereo in doubt; form 1),46,–,Not Active,41,75,Non-Toxic,44.8,Not Active,Not Active,36,Not Active,Non-Toxic,83,1,210,49.5,217,93.6,3.9,95.1,EC50 [37]: 6.2 nM; Tmax [38]: 3.5 h; clearance at 24 h ([5]; dose 2.8 mg/kg): 2.4 mL/min/kg; EC50 [39]: 5.9 nM; EC50 [40]: > 10 µM; solubility [13]: 113 µg/mL; solubility [14]: 158 µg/mL; EC50 [41]: 9.8 nM; Cmax [42]: 35 µM; solubility [22]: 60 µg/mL; IC50 [30]: > 20 µM; EC50 [43]: > 10 µM; bioavailability [44]: 61%; half-life [45]: 222 min; Vd at 24 h ([33]; dose 2.8 mg/kg): 0.87 L/kg; AUC(0-inf) [46]: 360 µM·h
Cc1cc(C(C)NC(=O)c2[nH]cc(Cc3ccc(C(F)(F)F)nc3)c2C)no1 (stereo in doubt; form 1),–,9.3,–,63,111,Non-Toxic,43.3,Not Active,Not Active,13,Not Active,Non-Toxic,94.7,1,138,75,66,92.2,7.2,93.7,clearance at 24 h [47]: 7.7 mL/min/kg; Cmax [48]: 16 µM; Tmax [49]: 4.3 h; Papp [50]: 57 10^-6 cm/s; bioavailability [51]: 61%; bioavailability [52]: 43%; EC50 [16]: 8.7 nM; Papp [53]: 48 10^-6 cm/s; Vd at 24 h [54]: 1.4 L/kg; AUC(0-inf) [55]: 160 µM·h; half-life [56]: 246 min; EC50 [57]: 8.3 nM
